The record followed here is patent US7851637B2, “Compounds and methods for inhibiting the interaction of BCL proteins with binding partners” (Infinity Pharmaceuticals, Inc., priority 2004, dated 2010).

pIC50, pKi: −log10 of the molar value. Like-named read-outs stand apart in the source and are kept apart here.

The test system of assay [1] is Human Pancreatic Cancer Cell Line Panc1. Kind of assay: Cell death assay (propidium iodide/Hoechst) in Panc1 cells with or without camptothecin. In kind it is cell-based. The settings on record: 72 hours, % cell death by propidium iodide/Hoechst. How it is done:
When RL-cells are exposed to isoxazolidine compounds of the present invention, the inhibitors show a dose-dependent cell-killing in the Alamar blue cytoxicity assay with IC50 values of from about 100 μM to about 1 μM (See Examples). When Panc1 cells are exposed to the isoxazolidine compounds of the present invention in combination with camptothecin, the inhibitors show a synergistic dose-dependent cell killing in the propidium iodide exclusion cell survival assay with IC50 values of from about 100 μM to about 1 μM (See Examples).
• 1) Compounds were serially diluted in DMSO from a 9 mM stock to a final concentration of 0.004 mM in a 96 well plate. • 2) Assay plates were prepared by diluting compounds 310 fold into 150 ul of medium containing 10,000 cells/well, with or without 3 uM Camptothecin, resulting in a final DMSO concentration of 0.3% and a compound concentration range from 29 uM to […] for each compound. • 3) Assay plates were incubated at 37 C, 5% CO2 for 72 hours. • 4) After 72 hours, propidium iodide and Hoechst dye were added to each well according to manufacturer's instruction. • 5) Plates were imaged on a fluorescence microscope at wavelengths Ex560/Em650 (Propidium iodide) and Ex360/Em465 (Hoechst) • 6) MetaMorph imaging software was used to determine % cell death by dividing the number of propidium iodide stained cells (dead cells) by the number of Hoechst stained cells (all cells), multipled by 100, in each field.
Panc1 invitro cellular data is presented below for various compounds of the invention.

The target of another assay is Bcl-2 (Homo sapiens, UniProt P10415). Description: Bcl-2 binding affinity analysis (fluorescence polarization binding assay). The procedure, abridged: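 Binding to human Bcl-2 quantified in vitro by a fluorescence polarization assay.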
Sequence of Bcl-2 (P10415 whole entry): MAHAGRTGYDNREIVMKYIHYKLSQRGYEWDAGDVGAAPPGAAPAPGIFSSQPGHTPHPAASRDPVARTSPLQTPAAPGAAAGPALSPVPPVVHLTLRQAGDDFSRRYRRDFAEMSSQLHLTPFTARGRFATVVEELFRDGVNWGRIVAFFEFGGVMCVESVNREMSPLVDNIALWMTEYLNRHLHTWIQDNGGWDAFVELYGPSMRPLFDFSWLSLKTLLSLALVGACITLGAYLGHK
For orientation: Fluorescence polarisation rises when a labelled molecule tumbles more slowly, as on binding a larger partner.

The target in the next assay is Bcl-xL (Homo sapiens, UniProt Q07817). Kind of assay: Bcl-xL binding affinity analysis (fluorescence polarization binding assay). Also noted: scale not given here. The method, boiled down:
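In vitro fluorescence polarization binding assay measuring compound binding to human Bcl-xL.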

The mark [2] stands for this setting: Homo sapiens, PANC-1, without camptothecin, read-out: Panc1 − Cpt IC50.
The mark [3] stands for this setting: with 3 uM Camptothecin, read-out: Panc1 + Cpt IC50.

Sequence of Bcl-xL (Q07817 whole entry): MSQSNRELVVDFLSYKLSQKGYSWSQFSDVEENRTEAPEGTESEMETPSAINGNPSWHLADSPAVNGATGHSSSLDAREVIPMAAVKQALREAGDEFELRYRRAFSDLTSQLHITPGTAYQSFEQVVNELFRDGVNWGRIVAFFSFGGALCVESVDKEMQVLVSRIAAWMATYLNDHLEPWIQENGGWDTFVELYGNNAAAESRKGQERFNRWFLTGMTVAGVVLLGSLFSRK

On to `CC(O)C1C(CO)ON(Cc2cccc(CNC(CN(C)C)CC(C)(C)C)c2)C1C(=O)NC1CC2CC(C1C)C2(C)C` (centres unmarked) [Compound 455], for which the pIC50 in assay [1] (setting [2]) and in assay [1] (setting [3]) was less than 5.60 each time. The pKi at Bcl-2 is more than 6.10. Moreover, on Bcl-xL, the “Bcl-XL binding affinity Ki” value was “♯”.
Turning to `CC(O)C1C(CO)ON(Cc2cccc(CN(CCN3CCCCCC3)Cc3ccccc3)c2)C1C(=O)NC1CC2CC(C1C)C2(C)C` (centres unmarked) [Compound 427], the pIC50 in assay [1] (setting [2]) and in assay [1] (setting [3]) was less than 5.60 throughout. Further, the pKi at Bcl-2 is more than 6.10. Moreover, at Bcl-xL, the “Bcl-XL binding affinity Ki” value is reported as “♯”.
Turning to `COc1ccc(COc2c(CN3O[C@@H](CO)[C@@H]([C@H](C)O)[C@H]3C(=O)N[C@H]3C[C@H]4C[C@@H]([C@@H]3C)C4(C)C)cccc2-c2ccc(C(=O)N(C)C)cc2)cc1` [Compound 166], the pIC50 in assay [1] (setting [2]) was less than 5.60; in assay [1] (setting [3]) it was more than 5.89. The compound further showed a pKi at Bcl-2 of more than 6.10. Further, on Bcl-xL, the “Bcl-XL binding affinity Ki” value is “♯”.
Taken in the same sequence, the figures for `CC(O)C1C(CO)ON(Cc2cccc(CN(C)C(Cc3ccccc3)CN(C)C)c2)C1C(=O)NC1CC2CC(C1C)C2(C)C` (centres unmarked) [Compound 464] were less than 5.60, less than 5.60, more than 6.10 and “♯”.
For `CC(C)CC(CN(C)C)N(Cc1cccc(CN2OC(CO)C(C(C)O)C2C(=O)NC2CC3CC(C2C)C3(C)C)c1)Cc1c(F)cccc1Cl` (centres unmarked) [Compound 307] the same measures were less than 5.60, less than 5.60, more than 6.10 and “♯”.
For `COc1ccc(CN(CCN(C)C)Cc2cccc(CN3OC(CO)C(C(C)O)C3C(=O)NC3CC4CC(C3C)C4(C)C)c2)cc1` (centres unmarked) [Compound 387] the same measures were less than 5.60, less than 5.60, more than 6.10 and “♯”.
Turning to `CC(C)CC(CN(C)C)N(Cc1cccc(CN2OC(CO)C(C(C)O)C2C(=O)NC2CC3CC(C2C)C3(C)C)c1)Cc1ccccc1I` (centres unmarked) [Compound 318], the pIC50 in assay [1] (setting [2]) and in assay [1] (setting [3]) was less than 5.60 each time. The negative-log Ki (pKi) on Bcl-2 was more than 6.10. Further, at Bcl-xL, the “Bcl-XL binding affinity Ki” value is reported as “♯”.
Regarding `CC(O)C1C(CO)ON(Cc2cccc(CNC(CN(C)C)c3ccccc3)c2)C1C(=O)NC1CC2CC(C1C)C2(C)C` (centres unmarked) [Compound 452], the pIC50 in assay [1] (setting [2]) and in assay [1] (setting [3]) was less than 5.60 in each case. The same compound showed a negative-log Ki (pKi) at Bcl-2 of more than 6.10. In addition, on Bcl-xL, the “Bcl-XL binding affinity Ki” value is “♯”.
For the compound `CC(O)C1C(CO)ON(Cc2cccc(C(=O)NC(Cc3ccccc3)CN(C)C)c2)C1C(=O)NC1CC2CC(C1C)C2(C)C` (centres unmarked) [Compound 508], the pIC50 in assay [1] (setting [2]) and in assay [1] (setting [3]) was less than 5.60 throughout. This compound also showed a negative-log Ki (pKi) at Bcl-2 of more than 6.10. Further, the “Bcl-XL binding affinity Ki” value at Bcl-xL is “♯”.
For the compound `CC(O)C1C(CO)ON(Cc2cccc(CN(CCN3CCCCC3)Cc3ccccc3)c2)C1C(=O)NC1CC2CC(C1C)C2(C)C` (centres unmarked) [Compound 433], the negative-log IC50 (pIC50) in assay [1] (setting [2]) and in assay [1] (setting [3]) was less than 5.60 each time. At Bcl-2, this compound had a negative logarithm of the Ki (pKi) of more than 6.10. Further, the “Bcl-XL binding affinity Ki” value at Bcl-xL is “♯”.
With `CC(O)C1C(CO)ON(Cc2cccc(C(=O)NC(CC3CCCCC3)CN(C)C)c2)C1C(=O)NC1CC2CC(C1C)C2(C)C` (centres unmarked) [Compound 501], the pIC50 was 5.60 to 5.74 in assay [1] (setting [2]) and 5.74 to 5.89 in assay [1] (setting [3]). The compound also had a negative-log Ki (pKi) on Bcl-2 of more than 6.10. The “Bcl-XL binding affinity Ki” value at Bcl-xL is “♯”.
With `COc1c(CN2O[C@@H](CO)[C@@H]([C@H](C)O)[C@H]2C(=O)N[C@H]2C[C@H]3C[C@@H]([C@@H]2C)C3(C)C)cccc1-c1cccc(C(=O)N[C@H](CN(C)C)CC(C)(C)C)c1` [Compound 479], the pIC50 is 5.60 to 5.74 in assay [1] (setting [2]) and 5.74 to 5.89 in assay [1] (setting [3]). At Bcl-2, this compound had a pKi of more than 6.10. For the same compound, the “Bcl-XL binding affinity Ki” value on Bcl-xL is “♯”.
For `CC(O)C1C(CO)ON(Cc2cccc(CNC(CN(C)C)C3CCCCC3)c2)C1C(=O)NC1CC2CC(C1C)C2(C)C` (centres unmarked) [Compound 443] the same measures were less than 5.60, less than 5.60, more than 6.10 and “♯”.
As for `CC(O)C1C(CO)ON(Cc2cccc(CNC(Cc3ccccc3)CN(C)C)c2)C1C(=O)NC1CC2CC(C1C)C2(C)C` (centres unmarked) [Compound 454], the pIC50 in assay [1] (setting [2]) and in assay [1] (setting [3]) was less than 5.60 throughout. The compound also showed a negative logarithm of the Ki (pKi) on Bcl-2 of more than 6.10. In addition, on Bcl-xL, the “Bcl-XL binding affinity Ki” value is listed as “♯”.
For `CCN1CCCC1CN(Cc1ccccc1)Cc1cccc(CN2OC(CO)C(C(C)O)C2C(=O)NC2CC3CC(C2C)C3(C)C)c1` (centres unmarked) [Compound 426], the negative logarithm of the IC50 (pIC50) in assay [1] (setting [2]) and in assay [1] (setting [3]) was less than 5.60 in each case. Further, the pKi on Bcl-2 was more than 6.10. Also, the “Bcl-XL binding affinity Ki” value on Bcl-xL is “♯”.
As to `COC(=O)CCNC(=O)c1cccc(-c2cccc(CN3O[C@@H](CO)[C@@H]([C@H](C)O)[C@H]3C(=O)N[C@H]3C[C@H]4C[C@@H]([C@@H]3C)C4(C)C)c2)c1` [Compound 149], the pIC50 in assay [1] (setting [2]) is less than 5.60; in assay [1] (setting [3]), 5.60 to 5.74. The compound also showed a pKi on Bcl-2 of more than 6.10. For the same compound, the “Bcl-XL binding affinity Ki” value on Bcl-xL is “♯”.
For the compound `COc1c(CN2O[C@@H](CO)[C@@H]([C@H](C)O)[C@H]2C(=O)N[C@H]2C[C@H]3C[C@@H]([C@@H]2C)C3(C)C)cccc1-c1cccc(C(=O)N[C@H](CC2CCCCC2)CN(C)C)c1` [Compound 489], the pIC50 in assay [1] (setting [2]) is less than 5.60; in assay [1] (setting [3]), 5.60 to 5.74. The compound further gave a pKi at Bcl-2 of more than 6.10. Further, the “Bcl-XL binding affinity Ki” value on Bcl-xL is on record as “♯”.
For `CC(O)C1C(CO)ON(Cc2cccc(CN(CCN(C)C)Cc3ccsc3)c2)C1C(=O)NC1CC2CC(C1C)C2(C)C` (centres unmarked) [Compound 347] the same measures were less than 5.60, less than 5.60, more than 6.10 and “♯”.
For `CC(O)C1C(CO)ON(Cc2cccc(CN(Cc3ccccc3)C(Cc3ccccc3)CN(C)C)c2)C1C(=O)NC1CC2CC(C1C)C2(C)C` (centres unmarked) [Compound 423] the same measures were less than 5.60, less than 5.60, more than 6.10 and “♯”.
As for `CC(C)C[C@@H](CN(C)C)N(Cc1cccc(CN2O[C@@H](CO)C([C@H](C)O)[C@H]2C(=O)N[C@H]2C[C@H]3C[C@@H]([C@@H]2C)C3(C)C)c1)Cc1c(O)cccc1F` (some centres unmarked) [Compound 306], the figures for the pIC50 in assay [1] (setting [2]) and in assay [1] (setting [3]) were less than 5.60 and 5.74 to 5.89, respectively. The pKi at Bcl-2 was more than 6.10. The “Bcl-XL binding affinity Ki” value at Bcl-xL is given as “♯”.
For `CC(O)C1C(CO)ON(Cc2cccc(CN(CCN(C)C)Cc3ccc(F)cc3)c2)C1C(=O)NC1CC2CC(C1C)C2(C)C` (centres unmarked) [Compound 376] the same measures were 5.60 to 5.74, 5.74 to 5.89, more than 6.10 and “♯”.
Taken in the same sequence, the figures for `C[C@@H]1[C@@H](NC(=O)[C@@H]2C([C@H](C)O)[C@H](CO)ON2Cc2cccc(CN(CCN(C)C)Cc3ccncc3)c2)C[C@H]2C[C@@H]1C2(C)C` (some centres unmarked) [Compound 389] were 5.60 to 5.74, 5.74 to 5.89, more than 6.10 and “♯”.
For `COc1cccc(F)c1CN(Cc1cccc(CN2OC(CO)C(C(C)O)C2C(=O)NC2CC3CC(C2C)C3(C)C)c1)C(CC(C)C)CN(C)C` (centres unmarked) [Compound 305] the same measures were 5.74 to 5.89, more than 5.89, more than 6.10 and “♯”.
Consider `CC(O)C1C(CO)ON(Cc2cccc(CNC(CC3CCCCC3)CN(C)C)c2)C1C(=O)NC1CC2CC(C1C)C2(C)C` (centres unmarked) [Compound 451], for which, in assay [1] (without camptothecin, read-out: Panc1 − Cpt IC50), the negative-log IC50 (pIC50) is less than 5.60. At Bcl-2, this compound showed a pKi of more than 6.10. For the same compound, the “Bcl-XL binding affinity Ki” value at Bcl-xL is given as “♯”.
As to `COc1cccc(CN(Cc2cccc(CN3OC(CO)C(C(C)O)C3C(=O)NC3CC4CC(C3C)C4(C)C)c2)C(CC(C)C)CN(C)C)c1` (centres unmarked) [Compound 319], the values for the pIC50 in assay [1] (setting [2]) and in assay [1] (setting [3]) were 5.60 to 5.74 and 5.74 to 5.89, respectively. In addition, the negative-log Ki (pKi) at Bcl-2 is more than 6.10. Further, the “Bcl-XL binding affinity Ki” value on Bcl-xL is “♯”.
As to `C[C@@H]1[C@@H](NC(=O)[C@@H]2C([C@H](C)O)[C@H](CO)ON2Cc2cccc(CN(Cc3ccccc3Br)[C@H](CN(C)C)C(C)(C)C)c2)C[C@H]2C[C@@H]1C2(C)C` (some centres unmarked) [Compound 422], the negative logarithm of the IC50 (pIC50) in assay [1] (setting [2]) was less than 5.60; in assay [1] (setting [3]), 5.74 to 5.89. The same compound had a pKi on Bcl-2 of more than 6.10. For the same compound, on Bcl-xL, the “Bcl-XL binding affinity Ki” value is “♯”.
As to `CC(O)C1C(CO)ON(Cc2cccc(CN(CCN3CCOCC3)Cc3ccccc3)c2)C1C(=O)NC1CC2CC(C1C)C2(C)C` (centres unmarked) [Compound 434], the pIC50 in assay [1] (setting [2]) and in assay [1] (setting [3]) was less than 5.60 throughout. The compound further showed a pKi on Bcl-2 of more than 6.10. Also, at Bcl-xL, the “Bcl-XL binding affinity Ki” value is on record as “♯”.

By pIC50 is commonly meant −log10 of the IC50, conventionally taken in molar units. Broadly, the pKi is the Ki on a negative log10 scale, so that one unit is a factor of ten.
